According to ChEMBL document CHEMBL4304757, “Synthetic heterocyclic candidates as promising α-glucosidase inhibitors: An overview” (Eur J Med Chem, 2019):

How the values were obtained:
Alpha glucosidase [1] = target: T1, Alpha glucosidase (Homo sapiens, UniProt O43451+P10253+P14410+Q2M2H8); test: Inhibition of alpha-glucosidase (unknown origin) using p-nitrophenyl-alpha-d-glucopyranoside as substrate preincubated for 5 mins followed by substrate addition measured after 30 mins; assay type: protein assay
Alpha glucosidase [2] = target: T1, Alpha glucosidase; test: Potency index, ratio of acarbose IC50 to compound IC50 for inhibition of alpha-glucosidase (unknown origin) using p-nitrophenyl-alpha-d-glucopyranoside as substrate preincubated for 5 mins followed by substrate addition measured after 30 mins; assay type: protein assay
[3] = Inhibition of yeast alpha-glucosidase using p-nitrophenyl-alpha-d-glucopyranoside as substrate preincubated with enzyme followed by substrate addition measured after 30 mins by spectrophotometric analysis; set-up: species or system Saccharomyces cerevisiae
Alpha glucosidase [4] = target: T1, Alpha glucosidase; test: Inhibition of alpha-glucosidase (unknown origin) using p-nitrophenyl-alpha-d-glucopyranoside as substrate preincubated for 30 mins followed by substrate addition measured for 60 secs by spectrophotometric analysis; assay type: protein assay
[5] = Inhibition of urease (unknown origin) assessed as reduction in ammonia production using urea as substrate after 15 mins by indophenol method
Alpha glucosidase [6] = target: T1, Alpha glucosidase; test: Inhibition of alpha-glucosidase (unknown origin) using p-nitro phenyl glucopyranoside as substrate preincubated for 10 mins followed by substrate addition measured after 10 mins; assay type: protein assay
Alpha amylase = target: T2, Alpha amylase (Homo sapiens, UniProt P0DUB6); test: Inhibition of alpha-amylase (unknown origin) using p-nitro phenyl glucopyranoside as substrate preincubated for 10 mins followed by substrate addition measured after 10 mins
T2 sequence (P0DUB6 whole entry): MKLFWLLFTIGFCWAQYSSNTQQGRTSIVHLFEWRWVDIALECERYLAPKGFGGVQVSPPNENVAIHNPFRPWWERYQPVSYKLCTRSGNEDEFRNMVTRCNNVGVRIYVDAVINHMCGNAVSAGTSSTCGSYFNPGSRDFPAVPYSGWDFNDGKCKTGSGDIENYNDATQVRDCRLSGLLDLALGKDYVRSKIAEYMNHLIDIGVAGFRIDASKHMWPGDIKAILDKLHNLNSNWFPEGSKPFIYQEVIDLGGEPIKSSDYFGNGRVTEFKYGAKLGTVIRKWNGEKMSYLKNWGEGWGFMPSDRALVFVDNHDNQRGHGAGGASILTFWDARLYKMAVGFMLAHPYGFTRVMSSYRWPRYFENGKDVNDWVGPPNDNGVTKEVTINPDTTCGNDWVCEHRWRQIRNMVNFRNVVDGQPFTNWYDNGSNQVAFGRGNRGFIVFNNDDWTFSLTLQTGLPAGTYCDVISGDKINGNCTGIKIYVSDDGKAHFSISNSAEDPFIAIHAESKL

Alpha glucosidase [7] = target: T1, Alpha glucosidase; test: Inhibition of alpha-glucosidase (unknown origin) using p-nitro phenyl glucopyranoside as substrate preincubated for 5 mins followed by substrate addition measured after 30 mins; assay type: protein assay
[8] = Inhibition of rat intestinal maltase-glucoamylase using p-nitrophenyl alpha-D-glucoside as substrate preincubated for 5 mins followed by substrate addition and measured after 30 mins
Alpha glucosidase [9] = target: T1, Alpha glucosidase; test: Inhibition of alpha-glucosidase (unknown origin) using p-nitrophenyl-alpha-d-glucopyranoside as substrate preincubated for 30 mins followed by substrate addition measured after 60 mins; assay type: protein assay
[10] = Inhibition of yeast alpha-glucosidase; set-up: species or system Saccharomyces cerevisiae
[11] = Inhibition of mouse alpha-glucosidase
Alpha glucosidase [12] = target: T1, Alpha glucosidase; test: Inhibition of alpha-glucosidase (unknown origin) using p-nitro phenyl glucopyranoside as substrate preincubated for 10 mins followed by substrate addition measured after 30 mins; assay type: protein assay
Alpha glucosidase [13] = target: T1, Alpha glucosidase; test: Non-competitive inhibition of alpha-glucosidase (unknown origin) using p-nitro phenyl glucopyranoside as substrate preincubated for 10 mins followed by substrate addition measured after 30 mins; assay type: protein assay
Alpha glucosidase [14] = target: T1, Alpha glucosidase; test: Inhibition of alpha-glucosidase (unknown origin) using p-nitrophenyl-alpha-d-glucopyranoside as substrate preincubated for 10 mins followed by substrate addition measured after 20 mins; assay type: protein assay
Alpha glucosidase [15] = target: T1, Alpha glucosidase; test: Competitive inhibition of alpha-glucosidase (unknown origin) using p-nitrophenyl-alpha-d-glucopyranoside as substrate preincubated for 10 mins followed by substrate addition measured after 20 mins; assay type: protein assay
Alpha glucosidase [16] = target: T1, Alpha glucosidase; test: Inhibition of alpha-glucosidase (unknown origin) using pNPG as substrate preincubated for 15 mins followed by substrate addition; assay type: protein assay

`Cc1cs/c(=N\C(=O)c2cccc3ccccc23)n1-c1cc(Cl)c(Cl)cc1Cl` showed an IC50 (Alpha glucosidase [1]) of 0.15 µM and a Ratio IC50 (Alpha glucosidase [2]) of 255.

`O=C(CCCSc1nc2ccccc2s1)Nc1cccc2ccccc12` gave an IC50 [3] of 10 µM.

`C(=N\Nc1nc(-c2ccc(-c3ccccc3)cc2)cs1)/c1cccc2ccccc12` gave an IC50 (Alpha glucosidase [4]) of 6.2 µM.

For `Oc1ccc(-c2nc3ccc(Br)cc3[nH]2)cc1`, the IC50 [5] was 8.3 µM.

For `CCOC(=O)CN1C(=O)S/C(=C/c2ccc(-n3ccc4c(Br)ccnc43)cc2)C1=O`, the IC50 (Alpha glucosidase [6]) was 0.55 µM and the IC50 (Alpha amylase) was 0.85 µM.

In the case of `O=c1oc2ccccc2cc1-c1nn(C(Nc2ccc(Oc3ccc(NC(c4cccc(Br)c4)n4nc(-c5cc6ccccc6oc5=O)oc4=S)cc3)cc2)c2cccc(Br)c2)c(=S)o1` (centres undefined), the IC50 (Alpha glucosidase [7]) is reported as 0.07 µM and the IC50 [8] is reported as 0.04 µM.

Work on `Clc1ccc(/N=c2\scc(-c3ccc(Cl)cc3)n2Nc2ccccc2)cc1` yielded an IC50 (Alpha glucosidase [9]) of 9.6 µM.

`COc1ccc(/C=C/C(=O)C2=C(/C=C/c3ccc(OC)c(O)c3)Oc3[nH]c(=O)[nH]c(=O)c3C2c2cccc([N+](=O)[O-])c2)cc1O` (centres undefined) gave an IC50 [10] of 97 to 119 µM and an IC50 [11] of 98 to 413 µM.

In the case of `O=C(N/N=C/c1cc(Cl)cc(Cl)c1O)c1nc(-c2cc3ccccc3oc2=O)cs1`, the IC50 (Alpha glucosidase [12]) is reported as 6.2 µM and the Ki (Alpha glucosidase [13]) is reported as 6.8 µM.

`COc1ccc(/C=C/C(=O)C2=C(/C=C/c3ccc(OC)c(O)c3)Oc3[nH]c(=O)[nH]c(=O)c3C2c2cc3ccccc3[nH]2)cc1O` (centres undefined) gave an IC50 [10] of 97 to 119 µM and an IC50 [11] of 98 to 413 µM.

`Cc1ccc(C(c2c(N)c3ccccc3oc2=O)c2c(N)c3ccccc3oc2=O)cc1` showed an IC50 (Alpha glucosidase [14]) of 20 µM and a Ki (Alpha glucosidase [15]) of 22 µM.

For `COc1ccc(/C=C/C(=O)C2=C(/C=C/c3ccc(OC)c(O)c3)Oc3[nH]c(=O)[nH]c(=O)c3C2c2ccc(Cl)cc2)cc1O` (centres undefined), the IC50 [10] was 97 to 119 µM and the IC50 [11] was 98 to 413 µM.

`Cc1ccccc1C(=O)/N=c1\scc(C)n1-c1cc(Cl)c(Cl)cc1Cl` gave an IC50 (Alpha glucosidase [1]) of 0.15 µM and a Ratio IC50 (Alpha glucosidase [2]) of 255.

`Oc1ccc(Br)cc1-c1nc2cc(Cl)ccc2s1` gave an IC50 (Alpha glucosidase [4]) of 22 µM.

`Cc1cccc2nc(-c3ccccc3Cl)[nH]c12` showed an IC50 (Alpha glucosidase [16]) of 5.3 µM.
